Assay results published in patent US20120040930A1, “TETRACYCLIC TERPENE SERIES COMPOUNDS, METHODS FOR PREPARING SAME, USES THEREOF AS MEDICINES AND PHARMACEUTICAL COMPOUNDS CONTAINING SAME” (priority 2005, published 2012).

Assays:
[1] = target: T1, acetylcholinesterase (AChE) isolated from Electrophorus electricus (Electrophorus electricus, UniProt O42275); experiment: biochemical; conditions: AChE isolated from Electrophorus electricus; read-out: AChE IC50
T1 construct: AChE isolated from Electrophorus electricus; from tissue

[2] = target: T2, human serum butyrylcholinesterase (BChE) (Homo sapiens, UniProt P06276); experiment: biochemical; conditions: human serum BChE; read-out: BChE
T2 construct: BChE isolated from human serum; from tissue; host or cells: human serum

[3] = target: T3, muscle nicotinic acetylcholine receptors (Mus musculus, UniProt P02716+P04756+P09690+P20782); experiment: Electrophysiology: interaction with muscle nicotinic acetylcholine receptors, mouse neuromuscular junction
T3 construct: isolated living vertebrate (frog and mouse) neuromuscular preparations; from tissue; host or cells: isolated mouse neuromuscular preparation
Source text: (§1) Secondly, the inventors determined, using electrophysiology, the ability of compound 8e to interact with muscle nicotinic acetylcholine receptors.

[4] = system: muscle nicotinic acetylcholine receptors; experiment: Electrophysiology: interaction with muscle nicotinic acetylcholine receptors, frog neuromuscular junction; conditions: 160 μM
Source text: as §1

[5] = system: skeletal neuromuscular junction; experiment: Cellular electrophysiology on isolated mouse neuromuscular preparations
Procedure: This extension of synaptic potentials is observed when the mouse neuromuscular preparations are placed in a normal survival medium (Krebs-Ringer) containing (in mM) NaCl, 151; KCl, 5; MgCl2, 1; CaCl2, 2; glucose, 11; and HEPES-NaOH, 5 (pH 7.4); and when the survival medium contains low concentrations of CaCl2 (0.4-1 mM) and high concentrations of MgCl2 (4-8 mM) to reduce the release of acetylcholine. The extension of synaptic potentials at the neuromuscular junction reflects the mean lifespan of synaptic channels opened by acetylcholine during their interactions with skeletal muscle nicotinic receptors. Inhibition of acetylcholinesterase increases acetylcholine concentration at the synaptic cleft, which allows acetylcholine to bind repeatedly with these receptors, thus extending the duration of synaptic responses.
Thus, the inhibition of acetylcholinesterase by this compound is not accompanied by depolarization of the muscle membrane.
From a pharmacological point of view, the inventors first tested the ability of compound 8e to modify nerve axon conduction.

T2 sequence (P06276 29-602): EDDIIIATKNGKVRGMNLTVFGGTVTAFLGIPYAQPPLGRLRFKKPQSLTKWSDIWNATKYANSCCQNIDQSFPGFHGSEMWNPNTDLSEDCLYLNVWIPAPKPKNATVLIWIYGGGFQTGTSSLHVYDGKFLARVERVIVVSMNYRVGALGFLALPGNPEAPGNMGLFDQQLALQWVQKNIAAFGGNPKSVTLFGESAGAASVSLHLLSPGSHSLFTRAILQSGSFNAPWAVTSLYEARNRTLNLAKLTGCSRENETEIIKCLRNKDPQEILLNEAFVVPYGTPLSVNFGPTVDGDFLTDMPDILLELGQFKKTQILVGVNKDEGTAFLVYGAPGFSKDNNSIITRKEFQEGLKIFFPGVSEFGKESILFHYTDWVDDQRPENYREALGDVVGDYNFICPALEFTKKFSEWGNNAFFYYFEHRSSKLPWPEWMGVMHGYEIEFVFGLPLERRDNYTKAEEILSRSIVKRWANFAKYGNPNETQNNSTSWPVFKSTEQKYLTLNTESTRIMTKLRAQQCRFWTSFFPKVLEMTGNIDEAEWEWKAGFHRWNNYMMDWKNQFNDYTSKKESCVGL
T1 sequence (O42275 24-633): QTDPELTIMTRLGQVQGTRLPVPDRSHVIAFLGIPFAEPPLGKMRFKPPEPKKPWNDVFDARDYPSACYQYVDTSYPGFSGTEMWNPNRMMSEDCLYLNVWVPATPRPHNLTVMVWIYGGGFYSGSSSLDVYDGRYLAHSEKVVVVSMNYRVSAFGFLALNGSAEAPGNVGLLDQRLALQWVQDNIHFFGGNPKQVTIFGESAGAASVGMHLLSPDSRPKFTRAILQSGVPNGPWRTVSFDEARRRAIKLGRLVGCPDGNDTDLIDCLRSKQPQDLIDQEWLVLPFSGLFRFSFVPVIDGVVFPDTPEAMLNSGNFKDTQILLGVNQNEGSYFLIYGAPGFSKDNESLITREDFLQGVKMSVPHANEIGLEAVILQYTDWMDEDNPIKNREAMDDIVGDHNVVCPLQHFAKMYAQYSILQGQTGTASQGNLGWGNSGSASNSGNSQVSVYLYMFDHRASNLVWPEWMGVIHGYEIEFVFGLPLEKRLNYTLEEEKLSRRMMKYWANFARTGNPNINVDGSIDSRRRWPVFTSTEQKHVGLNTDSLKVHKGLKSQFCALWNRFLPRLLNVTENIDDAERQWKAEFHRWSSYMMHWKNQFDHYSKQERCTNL
T3 sequence (P04756 21-457): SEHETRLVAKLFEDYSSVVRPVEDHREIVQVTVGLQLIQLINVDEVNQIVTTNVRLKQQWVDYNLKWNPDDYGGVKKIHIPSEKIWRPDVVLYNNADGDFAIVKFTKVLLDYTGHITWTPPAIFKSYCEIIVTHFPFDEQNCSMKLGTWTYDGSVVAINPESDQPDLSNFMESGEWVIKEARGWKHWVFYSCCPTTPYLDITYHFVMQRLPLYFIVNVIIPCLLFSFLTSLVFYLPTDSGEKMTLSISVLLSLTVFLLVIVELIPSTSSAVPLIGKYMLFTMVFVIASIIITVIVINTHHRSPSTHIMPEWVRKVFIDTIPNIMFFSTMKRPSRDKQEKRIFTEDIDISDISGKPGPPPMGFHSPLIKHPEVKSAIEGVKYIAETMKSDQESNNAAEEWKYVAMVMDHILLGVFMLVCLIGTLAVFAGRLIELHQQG
T3 sequence (P09690 24-501): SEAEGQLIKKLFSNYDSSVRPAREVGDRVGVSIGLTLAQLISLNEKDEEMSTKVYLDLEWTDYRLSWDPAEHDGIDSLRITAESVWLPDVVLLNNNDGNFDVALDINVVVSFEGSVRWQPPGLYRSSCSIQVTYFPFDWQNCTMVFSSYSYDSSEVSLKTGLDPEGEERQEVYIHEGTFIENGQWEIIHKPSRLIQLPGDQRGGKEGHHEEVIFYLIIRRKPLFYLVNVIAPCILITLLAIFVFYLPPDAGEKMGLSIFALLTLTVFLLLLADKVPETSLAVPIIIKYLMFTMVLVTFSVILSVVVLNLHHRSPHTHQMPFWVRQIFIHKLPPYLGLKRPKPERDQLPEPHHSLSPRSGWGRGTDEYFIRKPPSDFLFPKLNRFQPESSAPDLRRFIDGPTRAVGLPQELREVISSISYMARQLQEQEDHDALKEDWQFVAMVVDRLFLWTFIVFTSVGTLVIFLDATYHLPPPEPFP
T3 sequence (P02716 25-520): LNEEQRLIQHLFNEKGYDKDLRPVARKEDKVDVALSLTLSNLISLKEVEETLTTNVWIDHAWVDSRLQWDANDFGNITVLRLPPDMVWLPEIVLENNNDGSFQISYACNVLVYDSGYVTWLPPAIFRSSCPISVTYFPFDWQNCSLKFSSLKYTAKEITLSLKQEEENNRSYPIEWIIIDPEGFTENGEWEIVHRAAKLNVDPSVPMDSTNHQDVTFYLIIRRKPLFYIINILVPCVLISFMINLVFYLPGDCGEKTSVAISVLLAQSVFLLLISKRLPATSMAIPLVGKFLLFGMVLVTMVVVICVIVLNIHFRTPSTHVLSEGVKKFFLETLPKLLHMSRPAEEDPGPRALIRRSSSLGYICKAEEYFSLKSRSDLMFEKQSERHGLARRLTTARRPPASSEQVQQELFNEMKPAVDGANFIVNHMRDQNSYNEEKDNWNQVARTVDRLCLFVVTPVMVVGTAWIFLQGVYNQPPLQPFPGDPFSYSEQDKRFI
T3 sequence (P20782 21-493): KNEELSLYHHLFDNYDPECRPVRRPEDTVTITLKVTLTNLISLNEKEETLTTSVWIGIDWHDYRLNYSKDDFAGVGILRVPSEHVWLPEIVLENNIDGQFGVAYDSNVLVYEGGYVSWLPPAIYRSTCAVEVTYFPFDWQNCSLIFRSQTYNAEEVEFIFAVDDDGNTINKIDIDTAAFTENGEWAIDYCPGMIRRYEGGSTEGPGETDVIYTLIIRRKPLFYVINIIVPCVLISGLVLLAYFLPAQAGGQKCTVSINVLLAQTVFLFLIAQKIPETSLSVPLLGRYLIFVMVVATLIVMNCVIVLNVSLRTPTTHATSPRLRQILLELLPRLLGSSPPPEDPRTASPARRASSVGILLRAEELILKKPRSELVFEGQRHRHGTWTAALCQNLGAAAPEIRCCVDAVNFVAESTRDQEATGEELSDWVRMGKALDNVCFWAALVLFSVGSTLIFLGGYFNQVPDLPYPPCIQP

Compound | IC50 [1] [nM] | IC50 [2] [nM] | motor end-plate miniature potentials ([3]; 80 μM, species not given) | block of motor end-plate potentials evoked by motor nerve stimulation ([3]; 160 μM, mouse neuromuscular junction) [%] | block of motor end-plate potentials evoked by motor nerve stimulation [4] [%] | nerve axon conduction ([5]; 1 μM to 300 μM, mouse neuromuscular preparations) | synaptic response half-times (motor end-plate potentials and miniature end-plate potentials) ([5]; 1-25 μM, mouse neuromuscular preparations, normal Krebs-Ringer or low CaCl2/high MgCl2 medium) | effect on muscle fiber resting potentials ([5]; concentrations that extend synaptic potentials and higher (160-200 μM))
C[C@@H]([C@H]1[C@H](O)C[C@@]2(C)[C@@H]3CC[C@H]4[C@](C)(CO)[C@@H](N)CC[C@@]45CC35C(=O)C[C@]12C)N(C)C (stereo partly drawn) [Compound 5, (20S)-3-amino-9,19-cyclo-4α-hydroxymethyl-4,14α-dimethyl-20-dimethylamino-5α,9-pregnan-16α-ol-11-one] | > 5000 | > 30000 | – | – | – | – | – | –
CC(=O)O[C@@H]1C[C@@]2(C)[C@@H]3CC[C@@H]4C5(CC[C@H](NC(=O)C(C)C)[C@@]4(C)COS(=O)(=O)c4ccc(C)cc4)C[C@@]35C(=O)C[C@]2(C)[C@H]1[C@H](C)N(C)C (stereo partly drawn) [Compound 23, (20S)-16α-acetyl-3-isobutyrylamino-9,19-cyclo-4α-hydroxytosylmethyl-4,14α-dimethyl-20-dimethylamino-5α,9-pregnan-11-one] | 4370 | > 100000 | – | – | – | – | – | –
CC(C)C(=O)N[C@H]1CCC23C[C@]24C(=O)C[C@]2(C)[C@@H]([C@H](C)[N+](C)(C)[O-])[C@H](O)C[C@@]2(C)[C@@H]4CC[C@H]3[C@]1(C)CO (stereo partly drawn) [Compound 29, (20S)-3-isobutyrylamino-9,19-cyclo-4α-hydroxymethyl-4,14α-dimethyl-20-dimethylazinoyl-5α,9-pregnan-16α,11-ol-11-one] | 1420 | > 1000 | – | – | – | – | – | –
C[C@@H]([C@H]1[C@H](O)C[C@@]2(C)[C@@H]3CC[C@@H]4C(=CC[C@H](NC(=O)C(C)(C)C)[C@@]4(C)CO)C[C@H]3C(=O)C[C@]12C)N(C)C [Compound 7f, (20S)-10(9->1)abeo-4α-hydroxymethyl-4,14α-dimethyl-20-dimethylamino-3 (2,2-dimethylpropionylamino)-5α,9-pregn-1(10)-en-16α-ol-11-one] | 4830 | > 1000 | – | – | – | – | – | –
CC[C@H](C)C1=N[C@H]2CC=C3C[C@H]4C(=O)C[C@]5(C)[C@@H]([C@H](C)N(C)C)[C@H](O)C[C@@]5(C)[C@@H]4CC[C@H]3[C@]2(C)CO1 [Compound 8e, (20S)-10(9->1)abeo-4,14α-dimethyl-20-dimethylamino(2′-(S-1-methylpropyl)-4′,4′-dihydro[3′,1′]oxazin)-5α,9-pregn-1(10)-en-16α-ol-11-one] | 13 | > 1000 | causes a decrease in amplitude and blocking | 80 | 80 | does not apparently modify nerve conduction | produces an extension of synaptic response half-times | does not have a significant effect
C[C@@H]([C@H]1[C@H](O)C[C@@]2(C)[C@@H]3CC[C@@H]4C(=CC[C@@H]5N=C(C6CCCCC6)OC[C@]54C)C[C@H]3C(=O)C[C@]12C)N(C)C [Compound 8d, (20S)-10(9->1)abeo-4,14α-dimethyl-20-dimethylamino(2′-cyclohexyl-4′,4′-dihydro[3′,1′]oxazin)-5α,9-pregn-1(10)-en-16α-ol-11-one] | 403 | 375 | – | – | – | – | – | –
